Tests used:
[1] = Relaxivity measurement and T1-weighted imaging in solution, 1T MR; type: physicochemical; conditions: 0.1-0.5 mM, distilled water
Method: In order to measure the relaxivity of the produced MnCaP nanoparticle composite and compare the contrast effect with existing MnCl2 alone, a preclinical permanent magnet type 1T (Tesla) MR equipment (Icon™, Bruker-Biospin, Germany) was used to measure the relaxivity and acquire T1-weighted images for comparison. For the measurements, the MnCaP nanoparticle composite at a concentration of 0.1-0.5 mM and MnCl2 at the same concentration were used and measured in PCR sample tubes. Distilled water was used for dilution.
The relaxivity was measured using a proton volume coil (inner diameter 35 mm). As the contrast method, a rapid spin-echo technique adopting inversion pulse (Rapid Acquisition with Relaxation Enhancement, RARE) was employed. […]

[2] = mouse, in vivo
Text: Here, the maximum tolerant dose (MTD) of MnCaP for a mouse is about 1.5 mmol/kg. In this regard, the maximum tolerant dose (MTD) of MnCl2 is about 0.22 mmol/kg, which is about 1/7 the maximum tolerant dose (MTD) of MnCaP. Therefore, the polymer nanoparticle composite of the present invention that uses MnCaP is also extremely good for practical use in MRI contrast in terms of maximum tolerant dose (MTD).

[3] = test system: Colon26 liver metastatic tumor; conditions: property in clinical practice; cited from earlier work

Row | SMILES | longitudinal relaxivity r1 [1] | MTD of MnCl2 relative to MTD of MnCaP [2] | maximum tolerant dose (MTD) [2] | appearance of normal liver region (clinical contrast agent) [3] | signal change in liver tumor region (clinical contrast agent) [3]
1 | [Cl][Mn][Cl] [MnCl2] | 7.30 to 7.58 mM⁻¹ s⁻¹ | about 1/7 | about 0.22 mmol/kg | – | –
2 | CCOc1ccc(C[C@@H](CN(CCN(CC(=O)[O-])CC(=O)[O-])CC(=O)[O-])N(CC(=O)[O-])CC(=O)[O-])cc1.[Gd+3].[H+].[H+] [Gd-EOB-DTPA] | – | – | – | in white | almost no change
